Test results from PMC6658998, “Pharmacological characterization of the seven human NOX isoforms and their inhibitors” (Redox Biology, 2019).

Columns and labels:
NOX5 = target: NOX5; parameters: method as in PMID 27273790; conditions: documented values, measured using Amplex Red/HRP assay; cited from earlier work
[1] = Cell-free Amplex Red/HRP assay with 10 μM H2O2 (H2O2 scavenging / HRP inhibition); conditions: H2O2 alone
Description: This assay allows to detect H2O2 scavengers as well as HRP inhibitors. (iii) Another assay for determining antioxidant activity analyzes serial dilutions of compounds in the presence of free radical DPPH in methanol in transparent 96-well plates (200 μl/well). Absorbance was measured at 540 nm after 15 min incubation in the dark. All scavenging assays were performed with FlexStation 3 Multi-Mode Microplate Reader (Molecular Devices).

human NOX4 = target: T1, human NOX4 (Homo sapiens, UniProt Q9NPH5); assay: WST-1 O2•- detection in tetracycline-induced NOX4 HEK293 T-REx cells; type: cell-based; conditions: NOX4 expressing cells, concentration-response
T1 sequence (Q9NPH5 1-578): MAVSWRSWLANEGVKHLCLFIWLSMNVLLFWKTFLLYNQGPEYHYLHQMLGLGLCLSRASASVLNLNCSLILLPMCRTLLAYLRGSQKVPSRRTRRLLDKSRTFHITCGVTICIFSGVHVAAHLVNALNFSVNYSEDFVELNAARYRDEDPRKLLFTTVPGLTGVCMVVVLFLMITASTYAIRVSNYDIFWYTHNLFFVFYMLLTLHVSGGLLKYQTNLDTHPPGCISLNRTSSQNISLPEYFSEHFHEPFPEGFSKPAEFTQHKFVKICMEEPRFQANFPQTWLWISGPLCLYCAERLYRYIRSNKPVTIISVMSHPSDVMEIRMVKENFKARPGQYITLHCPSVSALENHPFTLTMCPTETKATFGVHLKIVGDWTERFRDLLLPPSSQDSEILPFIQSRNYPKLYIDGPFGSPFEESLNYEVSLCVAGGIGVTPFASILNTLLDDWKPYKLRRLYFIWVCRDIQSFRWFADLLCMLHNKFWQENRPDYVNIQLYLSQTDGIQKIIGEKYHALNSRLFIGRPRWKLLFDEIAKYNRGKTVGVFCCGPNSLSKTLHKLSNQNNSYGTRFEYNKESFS
T1 sequence (P13498 1-195 partner): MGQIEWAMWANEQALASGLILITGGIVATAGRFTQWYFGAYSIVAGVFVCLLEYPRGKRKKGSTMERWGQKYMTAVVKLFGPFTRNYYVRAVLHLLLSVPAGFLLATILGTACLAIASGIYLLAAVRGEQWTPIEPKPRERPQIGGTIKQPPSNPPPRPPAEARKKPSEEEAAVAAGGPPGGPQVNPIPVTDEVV

human NOX1 = target: T2, human NOX1 (Homo sapiens, UniProt Q9Y5S8); assay: WST-1 O2•- detection in NOX1-expressing CHO cells; type: cell-based; conditions: NOX1 expressing cells, concentration-response
T2 construct: expressed in transfected cells; host or cells: CHO
T2 sequence (Q9Y5S8 1-564): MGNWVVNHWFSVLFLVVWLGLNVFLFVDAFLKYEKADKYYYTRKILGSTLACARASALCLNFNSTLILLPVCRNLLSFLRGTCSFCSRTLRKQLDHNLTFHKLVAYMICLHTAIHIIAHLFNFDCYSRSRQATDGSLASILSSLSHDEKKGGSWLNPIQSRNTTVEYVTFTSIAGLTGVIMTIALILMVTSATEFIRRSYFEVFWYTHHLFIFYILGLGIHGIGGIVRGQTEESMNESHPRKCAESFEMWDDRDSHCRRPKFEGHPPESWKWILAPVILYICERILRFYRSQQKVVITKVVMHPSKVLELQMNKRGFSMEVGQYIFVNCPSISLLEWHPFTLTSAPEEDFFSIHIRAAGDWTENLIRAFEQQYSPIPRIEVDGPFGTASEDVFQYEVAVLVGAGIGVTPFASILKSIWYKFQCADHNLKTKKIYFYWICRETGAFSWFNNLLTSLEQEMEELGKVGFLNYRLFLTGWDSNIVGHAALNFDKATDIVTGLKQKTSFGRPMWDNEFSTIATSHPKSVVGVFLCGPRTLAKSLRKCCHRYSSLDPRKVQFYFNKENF
T2 sequence (P13498 1-195 partner): T1 sequence (P13498 1-195 partner)

NOX1 = target: NOX1; parameters: method as in PMID 27273790; conditions: documented values, measured using Amplex Red/HRP assay; cited from earlier work

Compound: CN(C)c1cccc(-c2c3c(=O)n(-c4ccccc4Cl)[nH]c3cc(=O)n2C)c1 [GKT137831]
- Ki NOX5 (NOX5): nanomolar range
- Effect on Amplex red/HRP signal in the presence of H2O2 alone [1]: inhibits the Amplex red/HRP signal
- Activity on NOX4 in the WST-1 assay (human NOX4): inactive
- Activity on NOX1 in the WST-1 assay (human NOX1): inactive
- Ki NOX1 (NOX1): nanomolar range
